Like-named read-outs stand apart in the source and are kept apart here.
Target: T1, α1A-ARs (Homo sapiens, UniProt P35348)
T1 sequence (P35348 1-466): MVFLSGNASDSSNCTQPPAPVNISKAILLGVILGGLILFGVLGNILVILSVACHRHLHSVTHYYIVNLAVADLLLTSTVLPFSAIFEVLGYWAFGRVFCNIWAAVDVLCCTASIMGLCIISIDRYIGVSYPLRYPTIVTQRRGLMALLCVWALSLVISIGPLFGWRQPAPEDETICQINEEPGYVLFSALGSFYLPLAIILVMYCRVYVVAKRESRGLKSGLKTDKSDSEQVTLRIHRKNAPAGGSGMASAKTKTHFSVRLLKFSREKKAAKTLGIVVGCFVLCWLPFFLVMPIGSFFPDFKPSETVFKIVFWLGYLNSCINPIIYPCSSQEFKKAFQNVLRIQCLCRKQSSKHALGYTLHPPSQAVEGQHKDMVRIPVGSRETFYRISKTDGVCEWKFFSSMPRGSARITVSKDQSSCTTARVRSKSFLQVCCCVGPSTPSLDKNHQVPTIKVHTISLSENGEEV
Test: Calcium flux assay (Calcium 6 dye) in cells expressing an α1-AR
Format: cell-based
Conditions: for Emax: read-out: Average Emax (% epi); for EC50: read-out: Average pEC50 (converted)
Text: Calcium flux experimental design: alpha-1 adrenergic receptors (α1-ARs) couple to Gq proteins, which results in downstream activation of phospholipase C and release of calcium from intracellular stores. Intracellular calcium increase upon α1-AR activation can be detected by Calcium 6 dye.
Cell preparation: cells expressing an α1-AR were washed in warmed phosphate-buffered saline to remove medium and harvested using versene (Caisson Labs, catalog #EDL01).
Media was removed from cells by tapping plates upside-down on absorbent wipes, followed by 15 second upside-down 50×g centrifugation, again on absorbent wipes. 12 μL cell dye solution was added to cells using a reagent dispenser (Integra viaFILL) and cells were incubated for 90 minutes at 37° C., 5% CO2.
Compound preparation: candidate alpha-adrenergic compounds, dissolved to 10 mM in DMSO, were diluted in assay buffer (HBSS/HEPES containing 2 mM CaCl2) and 2 mM probenecid sodium salt). […] On all assay plates, vehicle (DMSO) and positive control (10 μM epinephrine) conditions were included on the plate, as well as a dose-response curve of epinephrine. […] 384 well compound plates were centrifuged briefly at 250×g, sealed (Axygen PCR-SP) and incubated at 37° C. until the 90 minute cell dye incubation was complete.
Calcium 6 stained cells and 384 well compound plates were loaded onto the Flexstation and incubated on the machine for 5 minutes before initiating the assay.
For each assay well, baseline Calcium 6 fluorescence was detected for 18 seconds prior to 12 μL compound addition at 12 μL per second. Changes in Calcium 6 fluorescence were detected for a further 22 seconds, for a total read time of 40 seconds. All detection was performed with medium gain sensitivity, bottom read, with 6 flashes per read.
Data analysis: for calcium flux, analysis of maximum change from baseline over the 40-second read time was determined using Softmax Pro and data was exported as raw text files. Potency estimates (EC50) were derived from dose response curves (maximum change from baseline versus the log concentration of test compound) fit by four-parameter nonlinear regression using Graphpad Prism. Efficacy was determined by comparing the magnitude of the test compound signal window (fitted curve max−min) with the signal window of the full agonist control, epinephrine. […] All experiments were repeated a minimum of three times, with the average (mean) potency and maximum effect relative to the within-plate full agonist dose-response comparator reported.

[1] = α1A-AR calcium flux, mean of at least three experiments
[2] = α1A-AR calcium flux, relative to full agonist epinephrine, mean of at least three experiments

Row | SMILES | Emax | EC50 [1] | Emax [2]
1 | Clc1cccc2c(C3CC3)cn(CC3=NCCN3)c12 [Compound 3] | 21 to 60% | < 9.77 nM | 
2 | Clc1cn(-c2cn[nH]c2)c2cc(CC3=NCCN3)ccc12 [Compound 4] |  | > 1000 nM | < 20%
3 | Cc1cn(CC2=NCCN2)c2c(Cl)ccc(C(C)C)c12 [Compound 5] | > 61% | 10 to 977 nM | 
4 | COc1ccc(C(C)C)c2ccn(CC3=NCCN3)c12 [Compound 7] | > 61% | 10 to 977 nM | 
5 | Fc1cc(Cl)c2c(c1)c(C1CC1)cn2CC1=NCCN1 [Compound 8] | < 20% | 10 to 977 nM | 
6 | CC(C)c1ccc(Cl)c2c1c(S(C)(=O)=O)cn2CC1=NCCN1 [Compound 9] |  | > 1000 nM | < 20%
7 | Cc1cc2c(C(C)C)ccc(Cl)c2n1CC1=NCCN1 [Compound 10] | > 61% | 10 to 977 nM | 
8 | Fc1cc(F)c2c(c1)c(C1CC1)cn2CC1=NCCN1 [Compound 11] | > 61% | < 9.77 nM | 
9 | Fc1ccc2c(C3CC3)cn(CC3=NCCN3)c2c1Cl [Compound 12] | 21 to 60% | < 9.77 nM | 
10 | Clc1cccc2ccn(CC3=NCCN3)c12 [Compound 13] | 21 to 60% | 10 to 977 nM | 
11 | Clc1cccc2c(-c3cccnc3)nn(CC3=NCCN3)c12 [Compound 14] |  | > 1000 nM | < 20%
12 | Clc1cccc2cnn(CC3=NCCN3)c12 [Compound 15] | < 20% | > 1000 nM | 
13 | CC(C)(C)c1nn(CC2=NCCN2)c2c(Cl)cccc12 [Compound 16] | < 20% | > 1000 nM | 
14 | Cc1cn(CC2=NCCN2)c2c(Cl)cccc12 [Compound 17] | > 61% | < 9.77 nM | 
15 | N#Cc1cn(CC2=NCCN2)c2c(Cl)cccc12 [Compound 18] | > 61% | 10 to 977 nM | 
16 | Cc1cc2cccc(Cl)c2n1CC1=NCCN1 [Compound 19] | < 20% | > 1000 nM | 
17 | Clc1nn(CC2=NCCN2)c2c(Cl)cccc12 [Compound 20] | > 61% | 10 to 977 nM | 
18 | Fc1cc(Cl)c2c(c1)c(Cl)nn2CC1=NCCN1 [Compound 23] | > 61% | 10 to 977 nM | 
19 | Fc1ccc2c(Cl)nn(CC3=NCCN3)c2c1Cl [Compound 24] | > 61% | 10 to 977 nM | 
20 | FC(F)(F)c1nn(CC2=NCCN2)c2c(Cl)cccc12 [Compound 25] | 21 to 60% | 10 to 977 nM | 
21 | Fc1cccc2c(Cl)nn(CC3=NCCN3)c12 [Compound 26] | 21 to 60% | 10 to 977 nM | 
22 | FC(F)(F)c1cccc2c(Cl)nn(CC3=NCCN3)c12 [Compound 27] | > 61% | 10 to 977 nM | 

Row | SMILES | Emax | EC50 [1] | Emax [2]
23 | Cc1ccnc2c(Cl)nn(CC3=NCCN3)c12 [Compound 30] | > 61% | 10 to 977 nM | 
24 | Clc1ccc2c(c1)c(Cl)nn2CC1=NCCN1 [Compound 31] | 21 to 60% | > 1000 nM | 
25 | Clc1ccc2c(Cl)nn(CC3=NCCN3)c2c1 [Compound 32] | > 61% | 10 to 977 nM | 
26 | Clc1nn(CC2=NCCN2)c2c(-n3cccc3)cccc12 [Compound 33] |  | 10 to 977 nM | > 61%
27 | Clc1nn(CC2=NCCN2)c2c(-c3ccccc3)cccc12 [Compound 34] |  | 10 to 977 nM | 21 to 60%
28 | Clc1nn(CC2=NCCN2)c2c(-n3cccn3)cccc12 [Compound 36] |  | 10 to 977 nM | 21 to 60%
29 | FC(F)(F)Oc1cccc2c(Cl)nn(CC3=NCCN3)c12 [Compound 37] |  | 10 to 977 nM | > 61%
30 | CC(C)Oc1cccc2c(Cl)nn(CC3=NCCN3)c12 [Compound 38] | 21 to 60% | > 1000 nM | 
31 | CC(F)(F)c1cccc2c(Cl)nn(CC3=NCCN3)c12 [Compound 39] | 21 to 60% | 10 to 977 nM | 
32 | CCc1cccc2c(Cl)nn(CC3=NCCN3)c12 [Compound 40] | > 61% | 10 to 977 nM | 
33 | Clc1cccc2c(-c3ccccc3)nn(CC3=NCCN3)c12 [Compound 42] |  | > 1000 nM | 21 to 60%
34 | FC(F)c1cccc2c(Cl)nn(CC3=NCCN3)c12 [Compound 43] | < 20% | > 1000 nM | 
35 | Clc1cccc2c1c(Cl)nn2CC1=NCCN1 [Compound 45] | < 20% | > 1000 nM | 
36 | Cc1cc(Cl)cc2c(Cl)nn(CC3=NCCN3)c12 [Compound 46] | > 61% | 10 to 977 nM | 
37 | CC(C)c1cccc2c(Cl)nn(CC3=NCCN3)c12 [Compound 47] | > 61% | 10 to 977 nM | 
38 | Clc1nn(CC2=NCCN2)c2c(-c3ccccn3)cccc12 [Compound 48] |  | 10 to 977 nM | 21 to 60%
39 | Clc1cccc2c(-c3ccncc3)nn(CC3=NCCN3)c12 [Compound 49] |  | 10 to 977 nM | 21 to 60%
40 | Cc1cc(F)cc2c(Cl)nn(CC3=NCCN3)c12 [Compound 50] | < 20% | > 1000 nM | 
41 | Clc1cccc2c(-c3ccccn3)nn(CC3=NCCN3)c12 [Compound 51] |  | 10 to 977 nM | 21 to 60%
42 | Clc1nn(CC2=NCCN2)c2c(-c3cnccn3)cccc12 [Compound 52] |  | > 1000 nM | < 20%
43 | FC(F)(F)Cc1cccc2c(Cl)nn(CC3=NCCN3)c12 [Compound 53] |  | > 1000 nM | 21 to 60%
44 | Clc1cccc2c(C3=CCOCC3)nn(CC3=NCCN3)c12 [Compound 54] |  | > 1000 nM | 21 to 60%

Row | SMILES | Emax | EC50 [1] | Emax [2]
45 | Clc1cccc2c(-c3ncco3)nn(CC3=NCCN3)c12 [Compound 55] |  | > 1000 nM | < 20%
46 | Clc1cccc2c(N3CCCC3)nn(CC3=NCCN3)c12 [Compound 56] |  | > 1000 nM | < 20%
47 | Clc1cccc2c(-n3cccc3)nn(CC3=NCCN3)c12 [Compound 58] |  | 10 to 977 nM | > 61%
48 | Clc1nn(CC2=NCCN2)c2c(-c3ccon3)cccc12 [Compound 59] |  | > 1000 nM | < 20%
49 | Clc1cccc2c(-n3cccn3)nn(CC3=NCCN3)c12 [Compound 60] |  | > 1000 nM | > 61%
50 | Cc1cccc2c(C(F)(F)F)nn(CC3=NCCN3)c12 [Compound 61] | < 20% | > 1000 nM | 
51 | Cc1cccc2c(C(C)(F)F)nn(CC3=NCCN3)c12 [Compound 62] | > 61% | 10 to 977 nM | 
52 | Clc1cccc2c(-c3ccon3)nn(CC3=NCCN3)c12 [Compound 63] |  | 10 to 977 nM | > 61%
53 | FC(F)(F)c1cc(Cl)cc2c(Cl)nn(CC3=NCCN3)c12 [Compound 64] |  | > 1000 nM | < 20%
54 | Fc1cc(C(F)(F)F)c2c(c1)c(Cl)nn2CC1=NCCN1 [Compound 65] |  | 10 to 977 nM | > 61%
55 | Cc1cc(Cl)cc2c(N3CCCC3)nn(CC3=NCCN3)c12 [Compound 66] |  | 10 to 977 nM | 21 to 60%
56 | Clc1nn(CC2=NCCN2)c2c(N3CCCC3)cccc12 [Compound 67] |  | > 1000 nM | 21 to 60%
57 | Cc1cccc2c(N3CCCCC3)nn(CC3=NCCN3)c12 [Compound 68] |  | > 1000 nM | < 20%
58 | Cc1cc(Cl)cc2c(N3CCCCC3)nn(CC3=NCCN3)c12 [Compound 69] |  | > 1000 nM | < 20%
59 | Clc1nn(CC2=NCCN2)c2c(N3CCCCC3)cccc12 [Compound 70] |  | 10 to 977 nM | 21 to 60%
60 | FC(F)(F)c1cccc2c(N3CCCC3)nn(CC3=NCCN3)c12 [Compound 71] |  | > 1000 nM | < 20%
61 | CC(F)(F)c1cc(Cl)cc2c(Cl)nn(CC3=NCCN3)c12 [Compound 72] |  | 10 to 977 nM | > 61%
62 | Cc1cc(C(F)(F)F)cc2c(Cl)nn(CC3=NCCN3)c12 [Compound 73] |  | 10 to 977 nM | > 61%
63 | CC(F)(F)c1cccc2c(N3CCCC3)nn(CC3=NCCN3)c12 [Compound 74] |  | > 1000 nM | 21 to 60%
64 | CC(F)(F)c1cc(F)cc2c(Cl)nn(CC3=NCCN3)c12 [Compound 75] |  | 10 to 977 nM | 21 to 60%
65 | Cc1cc(F)cc2c(N3CCCC3)nn(CC3=NCCN3)c12 [Compound 77] |  | 10 to 977 nM | 21 to 60%

Reference: patent US20250188060A1, “ALPHA1A-ADRENERGIC RECEPTOR AGONISTS AND METHODS OF USE” (CuraSen Therapeutics, Inc., priority 2022, published 2025)
